The term IC50 denotes the point on the concentration scale where inhibition reaches its midpoint.

The values that follow come from article PMC10119282, “Molecular characterization of AIFM2/FSP1 inhibition by iFSP1-like molecules” (Cell Death & Disease, 2023).

Assay [1] concerns the target T1, recombinant purified hFSP1 WT (Homo sapiens, UniProt Q9BRQ8).
T1 construct: HisSUMO (cleaved yes); made in house; host or cells: E. coli BL21
Kind of assay: NADH consumption assay (340 nm), FSP1 enzyme activity and inhibition. The class given is biochemical. The following applies: iFSP1 2 µM; menadione as substrate. The procedure: (§1) FSP1 (human isoform 1, UniProt Q9BRQ8-1) WT (hFSP1 WT) and F360L (hFSP1 F360L) were expressed in E.coli BL21 as HisSUMO fusion protein. Cells were grown in lysogeny broth medium at 18 °C and induced with 0.5 mM isopropyl-β-thiogalactoside at a cell density A600 of 0.6. Cells were collected after overnight expression by centrifugation, resuspended in lysis buffer ([…], 50 mM Tris-HCl pH 8, 1 mM TCEP, 20 mM imidazole, protease inhibitor, DNase) and lysed by sonication. Cell debris was removed by centrifugation (30,000 × g) at 4 °C for 30 min, after which an IMAC purification was performed. […] IMAC eluates were analysed by SDS PAGE and concentrated to 15 mL (hFSP1 WT) and 5 mL (hFSP1 F360L), respectively. […] Pure fractions were pooled (C12—D11 for hFSP1 WT and C7—D4 for hFSP1 F360L), analysed by SDS-PAGE (Supplementary Fig. 4) and concentrated to 5.8 mL at 285.9 µM (hFSP1 WT) and 1.2 mL at 269.5 µM (FSP1 F360L), flash frozen in liquid N2 and stored at −80 °C.
(§2) Enzyme reactions were performed in TBS buffer (50 mM TRIS pH 8, 250 mM NaCl) on a 96-well plate in a 100 µL final volume. […] Absorbance (340 nm) was recorded every 30 s on a Spark® microplate reader (Tecan, Zürich, Switzerland) in order to determine NADH consumption. […]

Assay [2] addresses T2, recombinant purified hFSP1 F360L mutant (Homo sapiens, UniProt Q9BRQ8, F360L).
T2 construct: HisSUMO (cleaved yes); made in house; host or cells: E. coli BL21
The description is as above. The class given is biochemical. The following applies: iFSP1 2 µM; menadione as substrate. The procedure:
as §1, §2

The subject of assay [3] is Pfa1 Gpx4−/− overexpressing chimeric FSP1 C1. Kind of assay: Cell viability (Alamar blue), chimeric construct C1. The class given is cell-based, murine. Conditions: Mus musculus; chimeric construct C1 (human residues 1 to 59); x axis iFSP1 (μM); read-out: IC50 (dose-response toxicity). On the procedure:
(§3) Cell Lines. 4-hydroxytamoxifen (TAM)-inducible Gpx4^−/− murine immortalized fibroblasts (Pfa1) were reported previously. These cells harbor two loxP-flanked Gpx4 alleles and stably express TAM inducible Cre recombinase allowing the genetic deletion of Gpx4 at will. For all experiments using Gpx4^−/− the well were treated with 4-hydroxitamoxifen (TAM) 1 µM. All cells were cultured with were cultured in DMEM-high glucose (4.5 g glucose/L) with 10% fetal bovine serum (FBS), Glutamax, and 1% penicillin/streptomycin (Gibco, Thermo Fischer) at 37 °C with 5% CO2 and verified to be negative for mycoplasma.
(§4) Cell viability assays. Alamar Blue method: Cells were seeded on 96-well plates (2000 cells per well) and treated with the compounds RSL3, iFSP1 and (liproxstatin-1) after plating. Cell viability was assessed 48 h (unless stated otherwise) after treatment using Alamar Blue as an indicator of viable cells. Alamar blue solution was made by dissolving of 1 g resazurin sodium salt (Thermo Fischer) in 200 mL sterile PBS and sterile filtrated through a 0.22 µm filter. Stock solutions were stored at 4 °C. The working solution was made freshly by adding 200 µL of the stock solution to 25 mL growth media. After 2–4 h incubation time, viability was estimated by measuring the fluorescence using a 540/35 excitation filter and a 590/20 emission on a Spark® microplate reader (Tecan, Zürich, Switzerland). […]
(Resazurin is reduced to fluorescent resorufin, in cell work by metabolically active cells.)

The subject of assay [4] is Pfa1 Gpx4−/− overexpressing chimeric FSP1 C2. Kind of assay: Cell viability (Alamar blue), chimeric construct C2. The class given is cell-based, murine. The following applies: Mus musculus; chimeric construct C2 (human residues 59 to 120); x axis iFSP1 (μM); read-out: IC50 (dose-response toxicity). On the procedure: as §3, §4

Molecules are shown by their SMILES.

T1 sequence (Q9BRQ8 whole entry): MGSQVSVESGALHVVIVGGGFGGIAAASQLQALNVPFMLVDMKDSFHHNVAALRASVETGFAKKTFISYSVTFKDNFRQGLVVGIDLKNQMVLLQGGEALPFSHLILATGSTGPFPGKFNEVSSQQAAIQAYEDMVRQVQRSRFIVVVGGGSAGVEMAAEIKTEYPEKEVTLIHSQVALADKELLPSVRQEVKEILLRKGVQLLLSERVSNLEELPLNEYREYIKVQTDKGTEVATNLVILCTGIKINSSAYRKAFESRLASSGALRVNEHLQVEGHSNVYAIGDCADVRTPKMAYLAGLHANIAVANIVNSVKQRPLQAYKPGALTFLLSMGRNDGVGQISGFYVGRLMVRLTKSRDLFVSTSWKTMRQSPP
T2 sequence (Q9BRQ8 whole entry F360L): as the sequence (Q9BRQ8 whole entry) above, with F360L counted along it

On to `Cc1ccc(-c2c(C#N)c(N)n3c(nc4ccccc43)c2C#N)cc1` [iFSP1], for which the “inhibition of enzyme activity (NADH consumption)” value in assay [1] is “inhibited”; in assay [2] it was “just the activity of the WT protein was inhibited by iFSP1”. The IC50 stood at 9.41 µM in assay [3] and 6.2 µM in assay [4].
